Like-named read-outs stand apart in the source and are kept apart here. Marks after values point to notes of the source that are not given here.
How the values were obtained:
[1] = system: male NMRI mice; test: Phencyclidine (PCP)-induced hyperlocomotion in mice; assay type: in vivo; conditions: for ED50 PCP-Inh. (estimated): estimated ED50 (n = 3 per dose; 4-fold separation between doses); for ED50: Mus musculus
Protocol: On the day of experiments, the mice were brought into the procedural room. They were housed individually and allowed to acclimate for at least a half hour prior to testing. Although the studies were conducted during the light cycle (from 8:00 to 16:00 h), the procedure room was only sparsely lit (3 to 30 LUX) to provide better contrast for the video tracking. Local lighting was used for the injection procedures. During each trial, an individual mouse was placed in an open field arena (grey PVC cylinder with a height of 40 cm and a diameter of 22.5 cm). Each arena was placed on an infrared LED (8×8 LEDs)-lit box (white PVC squared box; 40×40 cm^2; height 12.5 cm). Each mouse was placed in the center of the arena and allowed to explore freely for 30 min. After each trial, the arena was cleaned with a wet and subsequently with a dry cleaning cloth. An infrared sensitive tube camera and a white light source (in arena: 4-7 LUX) were mounted to the ceiling above the observation chamber to record and input activity to a computer. Animal behavior was recorded and analyzed using the Noldus Ethovision XT Video Tracking System (Version 3.1; Noldus, Wageningen, The Netherlands). The total distance traveled (cm) was calculated. Data were then exported to data management systems for further analysis and reporting.
Test compound or solvent was administered at a pre-defined time before measurement (standard: 30 min) to male NMRI mice that were challenged with phencyclidine (PCP; 5 mg/kg, s.c.) 30 min before measurement. Activity was measured for a period of 30 min.

[2] = target: T1, human mGluR2 receptor (Homo sapiens, UniProt Q14416); test: [35S]GTPγS binding assay (PAM); assay type: biochemical; conditions: in presence of glutamate at predetermined EC20, membranes from CHO cells transfected with human mGluR2; for EC50: read-out: GTPγS -hR2 PAM pEC50 (converted)
T1 construct: expressed in transfected cells; host or cells: CHO cells (membranes)
Protocol: [^35S]GTPγS binding assay
The [^35S]GTPγS binding assay is a functional membrane-based assay used to study G-protein coupled receptor (GPCR) function whereby incorporation of a non-hydrolysable form of GTP, [^35S]GTPγS (guanosine 5′-triphosphate, labelled with […] ^35S), is measured.
CHO-cells were cultured to pre-confluence and stimulated with 5 mM butyrate for 24 h, prior to washing in PBS, and then collected by scraping in homogenisation buffer (50 mM Tris-HCl buffer, pH 7.4, 4° C.). Cell lysates were homogenized briefly using an ultra-turrax homogenizer. The homogenate was centrifuged at 16,000 RPM (Sorvall RC-5C plus rotor SS-34) for 10 minutes and the supernatant discarded. The pellet was resuspended in 5 mM Tris-HCl, pH 7.4 and centrifuged again (18,000 RPM, 20 min, 4° C.). The final pellet was resuspended in 50 mM Tris-HCl, pH 7.4 and stored at −80° C. in appropriate aliquots before use. Protein concentration was determined by the Bradford method (Bio-Rad, USA) with bovine serum albumin as standard.
Measurement of mGluR2 positive allosteric modulatory activity of test compounds was performed as follows. Test compounds and glutamate were diluted in assay buffer containing 10 mM HEPES acid, 10 mM HEPES salt, pH 7.4, 100 mM NaCl, 3 mM MgCl2 and 10 μM GDP. Human mGlu2 receptor-containing membranes were thawed on ice and diluted in assay buffer supplemented with 14 μg/ml saponin. Membranes were pre-incubated with compound alone or together with a predefined (˜EC20) concentration of glutamate (PAM assay) for 30 min at 30° C. After addition of [^35S]GTPγS (f.c. 0.1 nM) microplates were shaken briefly and further incubated to allow [^35S]GTPγS incorporation on activation (30 minutes, 30° C.). Final assay mixtures contained 7 μg of membrane protein in 10 mM HEPES acid, 10 mM HEPES salt, pH 7.4, 100 mM NaCl, 3 mM MgCl2, 10 μM GDP and 10 μg/ml saponin. Total reaction volume was […] Reactions were terminated by rapid filtration through Unifilter-96 GF/B filter plates (Packard, Meriden, Conn.) using a 96-well Packard filtermate harvester. Filters were washed 6 times with ice-cold 10 mM NaH2PO4/10 mM Na2HPO4, pH 7.4. Filters were then air-dried, and 40 μl of liquid scintillation cocktail (Microscint-O) was added to each well. Membrane-bound radioactivity was counted in a Microplate Scintillation and Luminescence Counter from Packard.
obtained in the presence of EC20 of mGluR2 agonist glutamate to determine positive allosteric modulation (PAM)—were generated using the Lexis software interface (developed at J&J). Data were calculated as % of the control glutamate response, defined as the maximal response that is generated upon addition of glutamate alone. Sigmoid concentration-response curves plotting these percentages versus the log concentration of the test compound were analyzed using non-linear regression analysis. The concentration producing half-maximal effect is then calculated as EC50.
All compounds were tested in presence of mGluR2 agonist, glutamate at a predetermined EC20 concentration, to determine positive allosteric modulation (GTPγS-PAM). pEC50 values were calculated from a concentration-response experiment of at least 10 concentrations.

[3] = system: Male mice (C57BL/6); test: Reversal of memantine-induced brain activation ([14C]2DG uptake) in mice; assay type: in vivo; conditions: for L.A.D. (lowest active dose) for significant (p<0.05) reduction of 2DG uptake in the hippocampus compared to memantine response: mice, s.c., memantine 20 mg/kg s.c.
Protocol: Reversal of Memantine-Induced Brain Activation in Mice NMDA receptor hypofunction is hypothesized to be involved in schizophrenia.
Autoradiographic assessment of radiolabeled [^14C]-2-deoxyglucose ([^14C]2DG) uptake is commonly used to investigate brain activation. In humans, cerebral blood flow is increased in specific brain regions after administration of a subanaesthetic dose of ketamine.
Male mice (C57BL/6, weight 24-28 g, fasted overnight; n=10 animals per group) were treated with vehicle or test compound (s.c.) in randomized order (t=0 min). Memantine (20 mg/kg, s.c.) was injected 30 min later (t=30 min). At t=45 min, [^14C]2DG (0.16 μCi/g) was administered intraperitoneally (i.p.), followed by a 45 min uptake period. Animals were decapitated (t=90 min), plasma glucose levels measured, the brain removed, rapidly frozen and stored at −20° C. until sectioned. Brain sections were exposed together to a precalibrated [^14C]standard on film, which was developed after four days of exposure. Local tissue [^14C]concentration (nCi/mg tissue equivalent—TEQ-) in each region of interest was determined.
Data was analyzed statistically using a two-way ANOVA analysis followed by post-hoc tests (memantine response versus reversal by the compound). The results are shown in table 5 below, expressed as lowest active dose (L.A.D.) required to exert a statistically significant (p<0.05) reduction of 2DG uptake in the hippocampus compared to memantine response.

[4] = system: male Wiga Wistar rats; test: Conditioned avoidance response (CAR) test; assay type: in vivo; conditions: for ED50: Rattus norvegicus, po
Source text: The apparatus consisted of an inner box surrounded by an outer box. The inner box was composed of four walls of transparent, synthetic material (length×width×height: 30×30×30 cm), an open top, and a grid floor made of 15 pairs of iron bars (2 mm diameter; 6 mm inter-bar distance). Odd and even bars were connected with a source of alternative current (1.0 mA; Coulbourn Instruments Solid State Shocker/Distributor), which could be interrupted by a switch. The outer box was composed of the same material (length×width×height: 40×40×36 cm), also with an open top, with a distance of 5 cm between the inner and outer box on all sides. To decrease the amount of environmental stimuli, three walls of the outer box were made non-transparent. The front wall was left transparent to allow the necessary inspection of the animal during the test. The upper edge of the outer and inner box served as a target for the rats on which to jump with fore- and hind-paws, respectively.
From their arrival in the laboratory on the experimental day, male Wiga Wistar rats (230±30 g) were housed in individual cages provided with bedding material.
Latency to avoidance was recorded. The median avoidance response obtained over the three experimental sessions for each rat were used for further calculations.

[5] = mice, PCP 5 mg/kg s.c., criterion total distance <5500 counts, not marked as oral, read-out: ED50 PCP-Inh.
[6] = sc, read-out: ED50 PCP-Inh. (estimated)
[7] = compound administered orally, criterion median avoidance latency >8 s, read-out: ED50 CAR-Inh.
[8] = compound administered orally, criterion median avoidance latency >8 s

T1 sequence (Q14416 19-872): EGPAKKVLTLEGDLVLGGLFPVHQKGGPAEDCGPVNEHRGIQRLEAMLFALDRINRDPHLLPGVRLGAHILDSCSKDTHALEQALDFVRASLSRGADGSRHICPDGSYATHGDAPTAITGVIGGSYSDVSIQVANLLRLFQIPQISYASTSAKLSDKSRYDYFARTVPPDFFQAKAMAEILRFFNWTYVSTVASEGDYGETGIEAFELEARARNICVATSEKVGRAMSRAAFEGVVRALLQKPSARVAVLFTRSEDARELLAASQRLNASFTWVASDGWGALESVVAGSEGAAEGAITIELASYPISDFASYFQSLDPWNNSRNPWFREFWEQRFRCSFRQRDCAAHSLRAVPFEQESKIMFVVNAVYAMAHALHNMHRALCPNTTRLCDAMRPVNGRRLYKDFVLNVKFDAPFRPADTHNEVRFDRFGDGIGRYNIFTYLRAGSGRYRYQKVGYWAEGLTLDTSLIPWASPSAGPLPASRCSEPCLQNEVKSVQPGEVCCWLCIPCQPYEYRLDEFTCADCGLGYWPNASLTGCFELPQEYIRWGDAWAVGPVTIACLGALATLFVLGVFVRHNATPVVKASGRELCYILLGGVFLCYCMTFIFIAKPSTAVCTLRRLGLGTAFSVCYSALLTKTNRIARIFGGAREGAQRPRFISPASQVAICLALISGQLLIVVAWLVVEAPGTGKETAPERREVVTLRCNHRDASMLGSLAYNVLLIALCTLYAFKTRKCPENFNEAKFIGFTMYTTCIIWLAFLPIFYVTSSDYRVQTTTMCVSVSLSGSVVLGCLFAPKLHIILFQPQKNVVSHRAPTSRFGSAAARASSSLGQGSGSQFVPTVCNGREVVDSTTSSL

Row | SMILES | GTPγS -hR2 PAM pEC50 [2] | EC50 [2] | melting point | L.A.D. (lowest active dose) for significant (p<0.05) reduction of 2DG uptake in the hippocampus compared to memantine response [3] | ED50 [1, 5] | also measured
1 | CCc1cc(Oc2ccc(-c3ccn4c(CC5CC5)nnc4c3Cl)cc2F)ccn1 [Co. No. 48, 3-Cyclopropylmethyl-7-[4-(2-ethyl-pyridin-4-yloxy)-3-fluoro-phenyl]-8-chloro-[1,2,4]triazolo[4,3-a]pyridine] | – | 145 nM | > 300 °C | ≦10 mg/kg | – | ED50 [1, 6]: 12.6 mg/kg
2 | O=C(CCCN1CCC(O)(c2ccc(Cl)cc2)CC1)c1ccc(F)cc1 [haloperidol, reference compound] | – | – | – | – | – | effect on memantine-induced brain glucose metabolism / 2DG uptake (in words) ([3]; mouse brain): inactive
3 | FC(F)(F)c1c(-c2ccc(N3CCNCC3)c(Cl)c2)ccn2c(CC3CC3)nnc12 [Co. No. 73] | 6.59 | – | – | – | – | ED50 PCP-Inh. (estimated) ([1]; mice, PCP 5 mg/kg s.c.): 12.6^a) mg/kg
4 | COc1ccc(CNc2ccc(-c3ccn4c(CC5CC5)nnc4c3C(F)(F)F)cc2)cn1 [Co. No. 58] | 7.90 | – | – | – | – | ED50 CAR-Inh. [4, 8]: ≧40*^ mg/kg
5 | FC(F)(F)Cc1nnc2c(Cl)c(-c3ccc(OC4CCOCC4)c(Cl)c3)ccn12 [Co. No. 7, 7-(3-Chloro-4-pyranyl-4-oxy-phenyl)-8-chloro-3-(2,2,2-trifluoro-ethyl)-1,2,4-triazolo[4,3-a]pyridine] | – | 174 nM | 186.7 °C | – | 10 mg/kg | –
6 | FC(F)(F)c1c(-c2ccc(Oc3ccnc(C4CC4)c3)c(Cl)c2)ccn2c(CC3CC3)nnc12 [Co. No. 54] | 8.38 | – | – | – | – | ED50 CAR-Inh. [4, 8]: >40* mg/kg
7 | Cc1cc(Oc2ccc(-c3ccn4c(CC5CC5)nnc4c3Cl)cc2F)ccn1 [Co. No. 15] | 6.65 | – | – | ≦10 mg/kg | – | ED50 CAR-Inh. [4, 8]: ≧40*^ mg/kg; ED50 PCP-Inh. ([1]; mice, PCP 5 mg/kg s.c., criterion total distance <5500 counts, not marked as oral): 20 mg/kg
8 | CCOCc1nnc2c(C)c(-c3ccc(Oc4ccc(C)nc4C)c(F)c3)ccn12 [Co. No. 42, 8-Methyl-3-ethoxymethyl-7-{3-fluoro-4-[(2,6-dimethylpyridin-3-yl)oxy]phenyl}[1,2,4]triazolo[4,3-a]pyridine] | – | 170 nM | 144 °C | 5 mg/kg | – | ED50 [1, 6]: 20 mg/kg

Now from value to compound, other results behind:

Row | GTPγS -hR2 PAM pEC50 [2] | EC50 [2] | melting point | SMILES | L.A.D. (lowest active dose) for significant (p<0.05) reduction of 2DG uptake in the hippocampus compared to memantine response [3] | ED50 [1, 5] | also measured
9 | 7.03 | – | – | Fc1cnccc1Oc1ccc(-c2ccn3c(CC4CC4)nnc3c2C(F)(F)F)cc1 [Co. No. 63] | – | – | ED50 PCP-Inh. (estimated) ([1]; mice, PCP 5 mg/kg s.c.): 1.58^a) mg/kg
10 | – | 10.2 nM | – | Cc1ccc(Oc2ccc(-c3ccn4c(CC5CC5)nnc4c3C(F)(F)F)cc2F)c(C)n1 [Co. No. 4] | ≦10 mg/kg | 15.2 mg/kg | ED50 ([4]; compound administered orally, estimated ED50 (n = 3 per dose; 4-fold separation between doses), read-out: ED50 CAR-Inh. (estimated)): 20 mg/kg; ED50 ([4]; not marked as oral, estimated ED50 (n = 3 per dose; 4-fold separation between doses), read-out: ED50 CAR-Inh. (estimated)): 7.9 mg/kg
11 | – | 17.8 nM | 211.1 °C | Fc1cc(-c2ccn3c(CC4CC4)nnc3c2C(F)(F)F)ccc1Oc1ccnc(C2CC2)c1 [Co. No. 46, 3-Cyclopropylmethyl-7-[4-(2-cyclopropyl-pyridin-4-yloxy)-3-fluoro-phenyl]-8-trifluoromethyl-[1,2,4]triazolo[4,3-a]pyridine] | ≦10 mg/kg | – | ED50 [1, 6]: 20 mg/kg
12 | – | 45.7 nM | 164.5 °C | Cc1ccc(Oc2ccc(-c3ccn4c(CC(F)(F)F)nnc4c3Cl)cc2F)c(C)n1 [Co. No. 3, 7-[3-Fluoro-4-(2′,6′-dimethyl-pyridin-3-yloxy)-phenyl]-8-chloro-3-(2,2,2-trifluoro-ethyl)-1,2,4-triazolo[4,3-a]pyridine] | – | 16.2 mg/kg | ED50 [4, 7]: 24.6 mg/kg; ED50 ([4]; not marked as oral, criterion median avoidance latency >8 s, read-out: ED50 CAR-Inh.): 18.6 mg/kg
13 | – | 42.7 nM | 207.2 °C | Cc1ccc(Oc2ccc(-c3ccn4c(CC5CC5)nnc4c3Cl)cc2F)c(C)n1 [Co. No. 14, 8-Chloro-3-cyclopropylmethyl-7-{4-[(2,6-dimethylpyridin-3-yl)oxy]-3-fluorophenyl}[1,2,4]triazolo[4,3-a]pyridine] | – | 18 mg/kg | ED50 [4, 7]: 24.6 mg/kg

From US8716480B2, “7-aryl-1,2,4-triazolo[4,3-a]pyridine derivatives and their use as positive allosteric modulators of mGluR2 receptors” (Janssen Pharmaceuticals, Inc., priority 2009, dated 2014)
